Reference: the NIST ThermoML archive (doi:10.1016/j.jct.2013.04.001)
± gives the expanded uncertainty stated by the source.

Legend:
[1] = wn = mass fraction of the nth substance listed; settings: 101 kPa, Liquid; for mass density: Pycnometric method; for viscosity: Capillary tube (Ostwald / Ubbelohde) method
[2] = 101 kPa, Liquid, Capillary tube (Ostwald / Ubbelohde) method
[3] = mn = molality of the nth substance listed, in mol/kg; settings: 101 kPa, Liquid, m2 = 0; for viscosity: Capillary tube (Ostwald / Ubbelohde) method

| SMILES | mass density ([1]; 293.15 K, w1 = 0.025) | mass density ([1]; 293.15 K, w1 = 0.05) | viscosity ([1]; 298.15 K, w1 = 0.025) | viscosity ([1]; 298.15 K, w1 = 0.05) | mass density ([1]; 298.15 K, w1 = 0.025) | mass density ([1]; 298.15 K, w1 = 0.05) | viscosity ([1]; 303.15 K, w1 = 0.025) | viscosity ([1]; 303.15 K, w1 = 0.05) | mass density ([1]; 303.15 K, w1 = 0.025) | mass density ([1]; 303.15 K, w1 = 0.05) | viscosity ([1]; 308.15 K, w1 = 0.025) | viscosity ([1]; 308.15 K, w1 = 0.05) | mass density ([1]; 308.15 K, w1 = 0.025) | mass density ([1]; 308.15 K, w1 = 0.05) | viscosity ([1]; 313.15 K, w1 = 0.025) | viscosity ([1]; 313.15 K, w1 = 0.05) | mass density ([1]; 313.15 K, w1 = 0.025) | mass density ([1]; 313.15 K, w1 = 0.05) | viscosity ([1]; 318.15 K, w1 = 0.025) | viscosity ([1]; 318.15 K, w1 = 0.05) | other results |
| --- | --- | --- | --- | --- | --- | --- | --- | --- | --- | --- | --- | --- | --- | --- | --- | --- | --- | --- | --- | --- | --- |
| O=C[C@H](O)[C@@H](O)[C@@H](O)CO [L-arabinose] + O | 1007.35 ± 0.33 kg/m3 | 1016.09 ± 0.34 kg/m3 | 0.9141 ± 0.037 mPa·s | 0.9695 ± 0.039 mPa·s | 1005.77 ± 0.35 kg/m3 | 1014.44 ± 0.35 kg/m3 | 0.8116 ± 0.033 mPa·s | 0.8573 ± 0.035 mPa·s | 1004.18 ± 0.36 kg/m3 | 1012.79 ± 0.36 kg/m3 | 0.7304 ± 0.029 mPa·s | 0.7658 ± 0.031 mPa·s | 1002.6 ± 0.37 kg/m3 | 1011.13 ± 0.38 kg/m3 | 0.6591 ± 0.027 mPa·s | 0.689 ± 0.028 mPa·s | 1001.01 ± 0.39 kg/m3 | 1009.46 ± 0.39 kg/m3 | 0.6006 ± 0.024 mPa·s | 0.6295 ± 0.025 mPa·s | mass density ([1]; 318.15 K, w1 = 0.025): 999.43 ± 0.4 kg/m3; mass density ([1]; 318.15 K, w1 = 0.05): 1007.8 ± 0.41 kg/m3 |
| O [water] |  |  |  |  |  |  |  |  |  |  |  |  |  |  |  |  |  |  |  |  | viscosity ([2]; 298.15 K): 0.8903 ± 0.036 mPa·s; viscosity ([2]; 303.15 K): 0.7973 ± 0.032 mPa·s; viscosity ([2]; 308.15 K): 0.719 ± 0.029 mPa·s; viscosity ([2]; 313.15 K): 0.6526 ± 0.026 mPa·s; viscosity ([2]; 318.15 K): 0.5972 ± 0.024 mPa·s |
| O [water] + N=C(N)NCCC[C@H](N)C(=O)O |  |  |  |  |  |  |  |  |  |  |  |  |  |  |  |  |  |  |  |  | viscosity ([3]; 298.15 K): 0.8903 ± 0.036 mPa·s; viscosity ([3]; 303.15 K): 0.7973 ± 0.032 mPa·s; viscosity ([3]; 308.15 K): 0.719 ± 0.029 mPa·s; mass density ([3]; 308.15 K, Pycnometric method): 994.07 ± 0.35 kg/m3; viscosity ([3]; 313.15 K): 0.6526 ± 0.026 mPa·s; viscosity ([3]; 318.15 K): 0.5972 ± 0.024 mPa·s |
| O=C[C@H](O)[C@@H](O)[C@H](O)CO [D-xylose] + O | 1007.24 ± 0.33 kg/m3 | 1015.93 ± 0.34 kg/m3 | 0.9096 ± 0.037 mPa·s | 0.964 ± 0.039 mPa·s | 1005.63 ± 0.35 kg/m3 | 1014.27 ± 0.35 kg/m3 | 0.8077 ± 0.033 mPa·s | 0.8547 ± 0.035 mPa·s | 1004.03 ± 0.36 kg/m3 | 1012.62 ± 0.36 kg/m3 | 0.7269 ± 0.029 mPa·s | 0.7637 ± 0.031 mPa·s | 1002.43 ± 0.37 kg/m3 | 1010.96 ± 0.38 kg/m3 | 0.6571 ± 0.027 mPa·s | 0.6869 ± 0.028 mPa·s | 1000.84 ± 0.39 kg/m3 | 1009.31 ± 0.39 kg/m3 | 0.5992 ± 0.024 mPa·s | 0.6253 ± 0.025 mPa·s | mass density ([1]; 318.15 K, w1 = 0.025): 999.23 ± 0.4 kg/m3; mass density ([1]; 318.15 K, w1 = 0.05): 1007.66 ± 0.41 kg/m3 |
